Laboratory results reported in patent publication US8163909B2, “Substituted hydroxyethyl amine compounds as beta-secretase modulators and methods of use” (Amgen Inc., priority 2007, dated 2012).
Like-named read-outs stand apart in the source and are kept apart here.

Experiments:
[1] = tested on: Aβ40 in conditioned medium of cells stably expressing Amyloid Precursor Protein (APP); test: In vitro BACE cell-based assay (Aβ40 in conditioned medium, sandwich ELISA); conditions: Homo sapiens;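 also: compounds added as a dilution series, secreted peptide quantified by europium time-resolved fluorescence readout, potency fitted from percent of control versus compound concentration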
CYP3A4 (CYP3A) = CYP3A4 (CYP3A) (Homo sapiens, UniProt P08684); test: in vitro; conditions: microsomes, pH 7.4;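 also: inhibition of CYP3A-mediated 1-hydroxymidazolam formation after 10 min incubation with NADPH, quantified by HPLC MS relative to metabolite produced without test compound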
Chain of CYP3A4 (CYP3A) (P08684 2-503): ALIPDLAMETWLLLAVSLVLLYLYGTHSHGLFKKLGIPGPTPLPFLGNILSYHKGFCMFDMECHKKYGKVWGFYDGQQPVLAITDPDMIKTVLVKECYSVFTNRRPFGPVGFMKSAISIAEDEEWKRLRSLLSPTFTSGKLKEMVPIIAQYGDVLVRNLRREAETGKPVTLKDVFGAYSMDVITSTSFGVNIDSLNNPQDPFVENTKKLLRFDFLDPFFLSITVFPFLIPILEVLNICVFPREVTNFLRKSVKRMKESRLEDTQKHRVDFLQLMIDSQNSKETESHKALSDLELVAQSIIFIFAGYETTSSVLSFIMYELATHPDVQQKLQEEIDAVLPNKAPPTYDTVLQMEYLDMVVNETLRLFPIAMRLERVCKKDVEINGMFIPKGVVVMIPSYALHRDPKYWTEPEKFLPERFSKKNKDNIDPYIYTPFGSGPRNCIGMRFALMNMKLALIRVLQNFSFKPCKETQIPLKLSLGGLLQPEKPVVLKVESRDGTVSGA

CYP2D6 = CYP2D6 (Homo sapiens, UniProt P10635); test: CYP2D6 inhibition assay (bufuralol, pooled human liver microsomes)
Chain of CYP2D6 (P10635 whole entry): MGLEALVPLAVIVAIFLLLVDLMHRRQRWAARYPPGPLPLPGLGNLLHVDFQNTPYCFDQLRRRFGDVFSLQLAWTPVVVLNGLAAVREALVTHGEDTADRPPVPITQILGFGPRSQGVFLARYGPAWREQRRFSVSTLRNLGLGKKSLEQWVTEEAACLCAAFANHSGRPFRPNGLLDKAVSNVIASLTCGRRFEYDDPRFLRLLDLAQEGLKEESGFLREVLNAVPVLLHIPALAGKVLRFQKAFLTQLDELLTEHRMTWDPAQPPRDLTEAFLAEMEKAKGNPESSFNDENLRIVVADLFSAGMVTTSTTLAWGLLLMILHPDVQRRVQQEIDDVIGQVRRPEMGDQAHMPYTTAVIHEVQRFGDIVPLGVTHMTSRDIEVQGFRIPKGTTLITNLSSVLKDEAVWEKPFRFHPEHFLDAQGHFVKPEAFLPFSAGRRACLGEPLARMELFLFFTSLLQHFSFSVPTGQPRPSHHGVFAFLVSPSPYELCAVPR

[2] = molecular target: Beta Secretase enzyme (BACE) (Homo sapiens, UniProt P56817); test: In vitro enzymatic BACE FRET (fluorescence resonance energy transfer) assay; type: biochemical;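 also: fluorescence read after 1 h with 50 nM quenched peptide substrate spanning the BACE cleavage site, in pH 4.2 acetate buffer containing 10% DMSO and nonionic detergent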
Chain of Beta Secretase enzyme (BACE) (P56817 46-501): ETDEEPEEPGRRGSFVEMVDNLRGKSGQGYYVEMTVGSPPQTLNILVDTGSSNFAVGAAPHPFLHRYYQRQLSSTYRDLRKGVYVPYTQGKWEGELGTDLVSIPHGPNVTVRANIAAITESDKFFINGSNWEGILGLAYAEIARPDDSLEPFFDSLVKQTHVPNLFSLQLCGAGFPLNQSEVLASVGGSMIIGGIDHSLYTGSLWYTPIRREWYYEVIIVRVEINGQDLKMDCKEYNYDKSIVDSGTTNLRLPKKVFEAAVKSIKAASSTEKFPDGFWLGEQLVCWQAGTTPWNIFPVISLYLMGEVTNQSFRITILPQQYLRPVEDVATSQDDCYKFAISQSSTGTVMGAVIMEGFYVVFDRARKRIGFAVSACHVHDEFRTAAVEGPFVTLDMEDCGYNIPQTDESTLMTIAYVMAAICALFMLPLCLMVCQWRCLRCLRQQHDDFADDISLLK

[3] = Microsomal stability assay, rat liver microsomes;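 also: rat liver microsomes (0.25 mg/mL) with about 1 µM compound plus 1 mM NADPH, pH 7.4, 37 °C for 30 min, parent left measured by LC-MS/MS against 0 min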
[4] = Microsomal stability assay, human liver microsomes;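 also: pooled human liver microsomes at 0.25 mg/mL with 1 µM compound and NADPH at 37 °C, pH 7.4, for 30 min, unchanged parent quantified by LC-MS/MS against the 0 min sample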
[5] = HEK293, Table 2, HEK cells, read-out: HEK cell assay
[6] = 2D6 IC50, CYP enzyme inhibition
[7] = Table 2, read-out: BACE1 FRET assay
[8] = HEK293, HEK cells, read-out: HEK cell assay
[9] = 2D6 IC50 (uM), CYP enzyme inhibition
[10] = BACE enzyme assay, read-out: BACE1 FRET assay
[11] = HEK293, HEK cells, read-out: HEK cell assay (IC50)
[12] = read-out: BACE1 FRET assay (IC50)
[13] = BACE enzyme assay, IC50's in uM, read-out: BACE1 FRET assay
[14] = HEK293, HEK cell-based assay, IC50's in uM, read-out: HEK cell assay
[15] = HEK293, HEK cell-based assay IC50, read-out: HEK cell assay
[16] = 2D6 IC50 (uM), CYP2D6 inhibition
[17] = BACE enzyme assay IC50, read-out: BACE1 FRET assay

CC(C)(C)Cc1cnc2c(c1)[C@@H](NC[C@@H](O)[C@H](Cc1ccc(F)cc1)NC(=O)C(C)(F)F)CC1(CCC1)O2 [compound 477]
IC50 [1, 5]: 0.104 µM | IC50 (CYP3A4 (CYP3A)): 300 nM | IC50 (CYP2D6; [6]): 3.2 µM | IC50 [2, 7]: 0.012 µM | RLM ([3]; rat liver microsomal data): 337 µL/min/mg | HLM ([4]; human liver microsomal data): 118 µL/min/mg

COCC(=O)N[C@@H](Cc1ccc(F)cc1)[C@H](O)CN[C@H]1CC2(CCC2)Oc2c1cc(CC(C)(C)C)nc2-c1ccncc1 [compound 549]
IC50 [1, 8]: 0.296 µM | IC50 (CYP3A4 (CYP3A)): 100 nM | IC50 (CYP2D6; [9]): 2 µM | IC50 [2, 10]: 0.071 µM | RLM ([3]; rat liver microsomal data): 122 µL/min/mg | HLM ([4]; human liver microsomal data): 38 µL/min/mg

CC(C)(C)Cc1cnc2c(c1)[C@@H](NC[C@@H](O)[C@H](Cc1ccc(F)cc1)NC(=O)[C@@H]1CCO1)CC1(CCC1)O2 [Example 441, (2S)—N-((1S,2R)-3-(((4′S)-6′-(2,2-dimethylpropyl)-3′,4′-dihydrospiro[cyclobutane-1,2′-pyrano[2,3-b]pyridin]-4′-yl)amino)-1-((4-fluorophenyl)methyl)-2-hydroxypropyl)-2-oxetanecarboxamide]
IC50 [1, 8]: 0.012 µM | IC50 (CYP3A4 (CYP3A)): 1100 nM | IC50 (CYP2D6; [9]): ≥ 27 µM | IC50 [2, 10]: 0.012 µM | RLM ([3]; rat liver microsomal data): 124 µL/min/mg | HLM ([4]; human liver microsomal data): 416 µL/min/mg

CC(=O)N[C@@H](Cc1ccc(F)c(-c2cccnc2)c1)[C@H](O)CN[C@H]1CC2(CCC2)Oc2ccc(CC(C)(C)C)cc21 [compound 648]
IC50 [1, 11]: 0.045 µM | IC50 (CYP3A4 (CYP3A)): 100 nM | IC50 (CYP2D6; 2D6 IC50, CYP2D6 inhibition): 0.4 µM | IC50 [2, 12]: 0.008 µM | RLM ([3]; rat liver microsomes): 560 µL/min/mg | HLM ([4]; human liver microsomes): 551 µL/min/mg

CO[C@@H](C)C(=O)N[C@@H](Cc1ccc2c(c1)OCO2)[C@H](O)CN[C@H]1CC2(CCC2)Cc2sc(CC(C)(C)C)cc21 [compound 456]
IC50 [1, 5]: 0.723 µM | IC50 (CYP3A4 (CYP3A)): 900 nM | IC50 (CYP2D6; [6]): 3.1 µM | IC50 [2, 7]: 0.359 µM | RLM ([3]; rat liver microsomal data): 97 µL/min/mg | HLM ([4]; human liver microsomal data): 74 µL/min/mg

COCC(=O)N[C@@H](Cc1ccc(F)cc1)[C@H](O)CN[C@H]1CC2(CCC2)Oc2nc(C)c(CC(C)(C)C)cc21 [compound 468]
IC50 [1, 5]: 0.108 µM | IC50 (CYP3A4 (CYP3A)): 500 nM | IC50 (CYP2D6; [6]): 9.6 µM | IC50 [2, 7]: 0.097 µM | RLM ([3]; rat liver microsomal data): 662 µL/min/mg | HLM ([4]; human liver microsomal data): 736 µL/min/mg

COCC(=O)N[C@@H](Cc1cccc(F)c1)[C@H](O)CN[C@H]1CC2(CCC2)Oc2c1cc([C@H](n1ccnc1)C(C)(C)C)cc2-n1ccnc1 [compound 563]
IC50 [1, 8]: > 10 µM | IC50 (CYP3A4 (CYP3A)): 100 nM | IC50 (CYP2D6; [9]): 0.4 µM | IC50 [2, 10]: 12 µM | RLM ([3]; rat liver microsomal data): 40 µL/min/mg | HLM ([4]; human liver microsomal data): 40 µL/min/mg

COCC(=O)N[C@@H](Cc1cc(F)cc(-c2nccs2)c1)[C@H](O)CN[C@@]1(C)CC2(CCC2)Oc2ncc(CC(C)(C)C)cc21 [compound 866]
IC50 ([1]; HEK293, cell-based assay, HEK cells, IC50's in uM, read-out: HEK cell assay): 0.88 µM | IC50 (CYP3A4 (CYP3A)): 200 nM | IC50 (CYP2D6; [6]): 0.9 µM | IC50 [2, 13]: 0.177 µM | RLM ([3]; rat liver microsomal data): 90 µL/min/mg | HLM ([4]; human liver microsomal data): 84 µL/min/mg

COCC(=O)N[C@@H](Cc1ccc2c(c1)OCO2)[C@H](O)CN[C@H]1CC2(CCC2)Oc2cnc(CC(C)C)cc21 [compound 664]
IC50 [1, 11]: 0.192 µM | IC50 (CYP3A4 (CYP3A)): ≤ 30 nM | IC50 (CYP2D6; 2D6 IC50, CYP2D6 inhibition): 2.3 µM | IC50 [2, 12]: 0.118 µM | RLM ([3]; rat liver microsomes): 276 µL/min/mg | HLM ([4]; human liver microsomes): 193 µL/min/mg

COCC(=O)N[C@@H](Cc1cc(F)cc(-c2nccs2)c1)[C@H](O)CN[C@H]1CC2(CCC2)Oc2ccc(CC(C)C)cc21 [compound 771, N-((1S,2R)-1-(3-fluoro-5-(1,3-thiazol-2-yl)benzyl)-2-hydroxy-3-(((4S)-6-(2-methylpropyl)-3,4-dihydrospiro[chromene-2,1′-cyclobutan]-4-yl)amino)propyl)-2-methoxyacetamide]
IC50 [1, 14]: 0.04 µM | IC50 (CYP3A4 (CYP3A)): 700 nM | IC50 (CYP2D6; [9]): 0.5 µM | IC50 [2, 13]: 0.005 µM | RLM ([3]; rat liver microsomal data): 201 µL/min/mg | HLM ([4]; human liver microsomal data): 150 µL/min/mg

CNc1nc(CC(C)C)cc2c1OC1(CCC1)C[C@@H]2NC[C@@H](O)[C@H](Cc1ccc2c(c1)OCO2)NC(=O)[C@@H](C)OC [compound 680]
IC50 [1, 15]: 0.025 µM | IC50 (CYP3A4 (CYP3A)): 500 nM | IC50 (CYP2D6; [16]): 14 µM | IC50 [2, 17]: 0.14 µM | RLM ([3]; rat liver microsomes): 317 µL/min/mg | HLM ([4]; human liver microsomes): 220 µL/min/mg

COCC(=O)N[C@@H](Cc1cc(F)cc(-c2nccs2)c1)[C@H](O)CN[C@H]1CC2(CCC2)Oc2ncc(C3CC3)cc21 [compound 749]
IC50 [1, 15]: 0.074 µM | IC50 (CYP3A4 (CYP3A)): 300 nM | IC50 (CYP2D6; [16]): 1.6 µM | IC50 [2, 17]: 0.046 µM | RLM ([3]; rat liver microsomes): 51 µL/min/mg | HLM ([4]; human liver microsomes): 59 µL/min/mg

COCC(=O)N[C@@H](Cc1cccc(F)c1)[C@H](O)CN[C@H]1CC2(CCC2)Oc2c1cc(CC(C)(C)C)nc2-c1ccncc1 [compound 531]
IC50 [1, 8]: 0.029 µM | IC50 (CYP3A4 (CYP3A)): 200 nM | IC50 (CYP2D6; [9]): 1.3 µM | IC50 [2, 10]: 0.013 µM | RLM ([3]; rat liver microsomal data): 159 µL/min/mg | HLM ([4]; human liver microsomal data): 40 µL/min/mg

COCC(=O)N[C@@H](Cc1ccc2c(c1)OCO2)[C@H](O)CN[C@H]1CC2(CCC2)Oc2c1cc(CC(C)C)nc2-c1ccncc1 [compound 669]
IC50 [1, 15]: 0.087 µM | IC50 (CYP3A4 (CYP3A)): ≤ 30 nM | IC50 (CYP2D6; [16]): 0.3 µM | IC50 [2, 17]: 0.034 µM | RLM ([3]; rat liver microsomes): 77 µL/min/mg | HLM ([4]; human liver microsomes): 45 µL/min/mg

CC(C)(C)Cc1cnc2c(c1)[C@@H](NC[C@@H](O)[C@H](Cc1ccc(F)cc1)NC(=O)[C@@H]1CN(Cc3cscn3)CCO1)CC1(CCC1)O2 [compound 786]
IC50 [1, 14]: 0.029 µM | IC50 (CYP3A4 (CYP3A)): 300 nM | IC50 (CYP2D6; [9]): 7.9 µM | IC50 [2, 13]: 0.047 µM | RLM ([3]; rat liver microsomal data): 129 µL/min/mg | HLM ([4]; human liver microsomal data): 169 µL/min/mg

COCCC(=O)N[C@@H](Cc1cccc(-c2nccs2)c1)[C@H](O)CN[C@H]1CC2(CCC2)Oc2ncc(CC(C)(C)C)cc21 [compound 791]
IC50 [1, 14]: 0.012 µM | IC50 (CYP3A4 (CYP3A)): 100 nM | IC50 (CYP2D6; [9]): 0.6 µM | IC50 [2, 13]: 0.009 µM | RLM ([3]; rat liver microsomal data): 33 µL/min/mg | HLM ([4]; human liver microsomal data): 43 µL/min/mg

CO[C@H](C)C(=O)N[C@@H](Cc1cc(F)cc(F)c1)[C@H](O)CN[C@H]1CC2(CCC2)Oc2c(-c3cnc[nH]3)cc(CC(C)C)cc21 [compound 476]
IC50 [1, 5]: 0.005 µM | IC50 (CYP3A4 (CYP3A)): 600 nM | IC50 (CYP2D6; [6]): 12.3 µM | IC50 [2, 7]: 0.028 µM | RLM ([3]; rat liver microsomal data): 408 µL/min/mg | HLM ([4]; human liver microsomal data): 329 µL/min/mg

CC(=O)N[C@@H](Cc1cccc(-c2ccncc2)c1)[C@H](O)CN[C@H]1CC2(CCC2)Oc2ccc(CC(C)(C)C)cc21 [compound 618]
IC50 [1, 11]: 0.038 µM | IC50 (CYP3A4 (CYP3A)): 160 nM | IC50 (CYP2D6; 2D6 IC50, CYP2D6 inhibition): 0.3 µM | IC50 [2, 12]: 0.031 µM | RLM ([3]; rat liver microsomes): 344 µL/min/mg | HLM ([4]; human liver microsomes): 413 µL/min/mg

CC(=O)N[C@@H](Cc1ccc2c(c1)OCO2)[C@H](O)CN[C@H]1CC2(CCC2)Oc2ncc(CC(F)(F)F)cc21 [compound 517]
IC50 [1, 8]: 0.202 µM | IC50 (CYP3A4 (CYP3A)): 500 nM | IC50 (CYP2D6; [9]): 7.8 µM | IC50 [2, 10]: 0.178 µM | RLM ([3]; rat liver microsomal data): 51 µL/min/mg | HLM ([4]; human liver microsomal data): 32 µL/min/mg

COCC(=O)N[C@@H](Cc1cc(F)cc(-c2nc(C)cs2)c1)[C@H](O)CN[C@H]1CC2(CCC2)Oc2ncc(CC(C)C)cc21 [compound 733]
IC50 [1, 15]: 0.021 µM | IC50 (CYP3A4 (CYP3A)): ≤ 30 nM | IC50 (CYP2D6; [16]): 4.5 µM | IC50 [2, 17]: 0.008 µM | RLM ([3]; rat liver microsomes): 399 µL/min/mg | HLM ([4]; human liver microsomes): 249 µL/min/mg

COCC(=O)N[C@@H](Cc1cccc(F)c1)[C@H](O)CN[C@H]1CC2(CCC2)Oc2ccc(C[C@@H](C)F)cc21 [compound 559]
IC50 [1, 8]: 0.038 µM | IC50 (CYP3A4 (CYP3A)): 7100 nM | IC50 (CYP2D6; [9]): 1.1 µM | IC50 [2, 10]: 0.027 µM | RLM ([3]; rat liver microsomal data): 829 µL/min/mg | HLM ([4]; human liver microsomal data): 706 µL/min/mg
